Reference: ChEMBL document CHEMBL1152196, “Benzimidazole- and benzoxazole-based inhibitors of Rho kinase” (Bioorg Med Chem Lett, 2008)

Experiments:
CYP2D6 = CYP2D6 (Homo sapiens, UniProt P10635); test: Inhibition of CYP2D6 at 10 uM; format: ADME
CYP2C9 = CYP2C9 (Homo sapiens, UniProt P11712); test: Inhibition of CYP2C9 at 10 uM; format: ADME
[1] = Metabolic stability in human liver microsomes; format: ADME, Microsome
CYP3A4 = CYP3A4 (Homo sapiens, UniProt P08684); test: Inhibition of CYP3A4 at 10 uM; format: ADME
[2] = molecular target: T1, Rho-associated protein kinase 2 (Homo sapiens, UniProt O75116); test: Inhibition of ROCK2 assessed as myosin light chain phosphorylation by cell-based assay
[3] = Inhibition of PKA
[4] = molecular target: T1, Rho-associated protein kinase 2; test: Inhibition of ROCK2
CYP1A2 = molecular target: T2, CYP1A2 (Homo sapiens, UniProt P05177); test: Inhibition of CYP1A2 at 10 uM; format: ADME
T2 sequence (P05177 whole entry): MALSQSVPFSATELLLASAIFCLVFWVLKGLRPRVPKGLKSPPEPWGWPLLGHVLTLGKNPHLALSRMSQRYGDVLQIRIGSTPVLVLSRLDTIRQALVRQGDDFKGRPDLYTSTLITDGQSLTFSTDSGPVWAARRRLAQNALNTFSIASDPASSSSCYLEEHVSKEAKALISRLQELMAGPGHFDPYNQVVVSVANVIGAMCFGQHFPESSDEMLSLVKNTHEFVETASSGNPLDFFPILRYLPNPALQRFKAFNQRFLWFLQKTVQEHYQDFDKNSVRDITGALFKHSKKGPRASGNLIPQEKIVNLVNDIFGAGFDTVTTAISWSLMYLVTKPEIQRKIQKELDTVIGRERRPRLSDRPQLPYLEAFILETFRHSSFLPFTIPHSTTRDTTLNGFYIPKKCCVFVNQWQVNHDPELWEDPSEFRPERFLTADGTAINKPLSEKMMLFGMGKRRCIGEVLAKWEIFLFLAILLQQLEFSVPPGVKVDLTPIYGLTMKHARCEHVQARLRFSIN

[5] = Cmax in rat at 2 mg/kg, po; format: ADME, organism-based; parameters: dose 2 mg/kg, route oral; conditions: in vivo
[6] = Clearance in rat at 1 mg/kg, iv or 2 mg/kg, po; format: ADME, organism-based; conditions: in vivo
[7] = Inhibition of p38 kinase
[8] = Volume of distribution at steady state in rat at 1 mg/kg, iv or 2 mg/kg, po; format: ADME, organism-based; conditions: in vivo, read-out: Vdss
[9] = molecular target: Mitogen-activated protein kinase 10 (Homo sapiens, UniProt P53779); test: Inhibition of JNK3
[10] = Oral bioavailability in rat at 2 mg/kg; format: ADME, organism-based; conditions: in vivo
[11] = AUC in rat at 2 mg/kg, po; format: ADME, organism-based; parameters: dose 2 mg/kg, route oral; conditions: plasma
[12] = Inhibition of MRCK
[13] = molecular target: RAC-alpha serine/threonine-protein kinase (Homo sapiens, UniProt P31749); test: Inhibition of Akt1
[14] = Half life in rat at 1 mg/kg, iv or 2 mg/kg, po; format: ADME, organism-based; conditions: in vivo
[15] = molecular target: Mitogen-activated protein kinase 8 (Homo sapiens, UniProt P45983); test: Inhibition of JNK1
[16] = Selectivity for ROCK2 over PKA

Chain of CYP2D6 (P10635 whole entry): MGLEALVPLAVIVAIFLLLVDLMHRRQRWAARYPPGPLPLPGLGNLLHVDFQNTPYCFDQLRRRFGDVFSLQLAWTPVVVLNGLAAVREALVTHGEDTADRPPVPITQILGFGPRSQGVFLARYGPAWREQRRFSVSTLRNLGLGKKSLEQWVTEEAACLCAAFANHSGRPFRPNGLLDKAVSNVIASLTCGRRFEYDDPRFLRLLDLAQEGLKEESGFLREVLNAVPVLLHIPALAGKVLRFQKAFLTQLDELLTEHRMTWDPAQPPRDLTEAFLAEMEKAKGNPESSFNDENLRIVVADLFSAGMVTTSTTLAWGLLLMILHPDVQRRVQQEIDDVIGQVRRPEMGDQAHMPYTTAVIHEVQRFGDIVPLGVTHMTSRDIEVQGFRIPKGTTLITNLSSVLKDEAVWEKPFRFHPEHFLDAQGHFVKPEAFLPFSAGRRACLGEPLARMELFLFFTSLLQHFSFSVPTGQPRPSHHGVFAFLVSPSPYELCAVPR
Chain of CYP3A4 (P08684 whole entry): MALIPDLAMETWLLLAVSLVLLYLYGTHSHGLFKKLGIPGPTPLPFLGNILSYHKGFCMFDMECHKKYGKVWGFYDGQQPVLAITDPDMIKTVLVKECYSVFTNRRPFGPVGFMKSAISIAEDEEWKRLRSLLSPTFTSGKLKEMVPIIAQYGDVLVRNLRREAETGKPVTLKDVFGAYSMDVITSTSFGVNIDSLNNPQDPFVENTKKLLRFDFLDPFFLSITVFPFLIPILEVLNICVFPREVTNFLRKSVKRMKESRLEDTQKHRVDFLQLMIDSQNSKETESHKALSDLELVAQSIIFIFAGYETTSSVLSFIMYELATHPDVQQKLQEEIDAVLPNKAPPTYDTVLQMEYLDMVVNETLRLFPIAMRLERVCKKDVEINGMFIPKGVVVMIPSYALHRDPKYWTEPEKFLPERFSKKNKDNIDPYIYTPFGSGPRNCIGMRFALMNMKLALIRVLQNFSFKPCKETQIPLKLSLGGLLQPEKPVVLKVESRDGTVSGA
T1 sequence (O75116 whole entry): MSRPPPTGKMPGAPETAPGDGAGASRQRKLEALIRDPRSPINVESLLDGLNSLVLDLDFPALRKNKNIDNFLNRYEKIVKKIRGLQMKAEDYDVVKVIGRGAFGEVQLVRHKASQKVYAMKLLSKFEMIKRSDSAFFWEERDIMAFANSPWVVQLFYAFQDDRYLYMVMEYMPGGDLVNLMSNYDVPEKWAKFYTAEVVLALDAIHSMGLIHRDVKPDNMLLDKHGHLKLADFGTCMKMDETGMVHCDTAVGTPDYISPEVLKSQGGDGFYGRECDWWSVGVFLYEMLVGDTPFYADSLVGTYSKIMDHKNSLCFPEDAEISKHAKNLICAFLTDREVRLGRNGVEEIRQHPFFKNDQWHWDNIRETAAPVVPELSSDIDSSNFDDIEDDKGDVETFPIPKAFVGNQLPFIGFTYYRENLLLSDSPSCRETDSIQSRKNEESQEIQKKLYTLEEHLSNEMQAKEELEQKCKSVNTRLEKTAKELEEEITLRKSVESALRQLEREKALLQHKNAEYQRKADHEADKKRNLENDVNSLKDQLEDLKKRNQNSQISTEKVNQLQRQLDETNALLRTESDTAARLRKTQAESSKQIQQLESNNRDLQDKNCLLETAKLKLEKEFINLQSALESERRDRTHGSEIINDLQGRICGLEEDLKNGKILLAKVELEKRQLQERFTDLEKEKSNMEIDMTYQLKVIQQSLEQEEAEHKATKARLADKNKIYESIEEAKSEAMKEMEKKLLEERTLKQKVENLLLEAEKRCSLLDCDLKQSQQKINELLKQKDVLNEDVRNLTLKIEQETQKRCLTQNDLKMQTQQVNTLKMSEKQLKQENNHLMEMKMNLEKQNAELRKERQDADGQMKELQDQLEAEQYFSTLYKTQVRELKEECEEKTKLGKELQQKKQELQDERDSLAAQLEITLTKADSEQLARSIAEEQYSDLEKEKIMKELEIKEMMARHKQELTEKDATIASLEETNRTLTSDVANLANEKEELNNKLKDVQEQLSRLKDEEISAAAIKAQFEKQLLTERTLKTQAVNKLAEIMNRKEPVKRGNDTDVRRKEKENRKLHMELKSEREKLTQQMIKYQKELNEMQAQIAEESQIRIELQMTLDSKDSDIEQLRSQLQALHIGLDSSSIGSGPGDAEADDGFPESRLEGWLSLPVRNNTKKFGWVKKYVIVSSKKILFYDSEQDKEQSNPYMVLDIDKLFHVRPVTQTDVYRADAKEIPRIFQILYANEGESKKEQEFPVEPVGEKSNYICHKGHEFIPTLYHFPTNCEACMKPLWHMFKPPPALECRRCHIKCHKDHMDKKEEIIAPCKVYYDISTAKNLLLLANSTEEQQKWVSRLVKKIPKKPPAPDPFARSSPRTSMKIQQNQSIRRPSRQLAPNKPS
Chain of CYP2C9 (P11712 whole entry): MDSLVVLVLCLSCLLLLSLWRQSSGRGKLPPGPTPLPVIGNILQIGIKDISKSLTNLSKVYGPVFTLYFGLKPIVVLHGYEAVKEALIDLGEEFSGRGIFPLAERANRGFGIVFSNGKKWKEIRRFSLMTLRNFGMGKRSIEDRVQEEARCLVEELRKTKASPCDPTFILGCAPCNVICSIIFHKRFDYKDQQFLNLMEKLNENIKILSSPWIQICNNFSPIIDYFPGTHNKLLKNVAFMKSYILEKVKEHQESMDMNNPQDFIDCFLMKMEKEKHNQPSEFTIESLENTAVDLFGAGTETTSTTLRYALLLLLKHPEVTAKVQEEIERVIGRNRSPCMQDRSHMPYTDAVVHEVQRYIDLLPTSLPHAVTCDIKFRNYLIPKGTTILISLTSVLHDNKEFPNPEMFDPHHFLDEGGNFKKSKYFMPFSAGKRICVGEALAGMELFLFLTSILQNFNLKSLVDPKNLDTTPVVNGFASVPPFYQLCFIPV
Chain of RAC-alpha serine/threonine-protein kinase (P31749 whole entry): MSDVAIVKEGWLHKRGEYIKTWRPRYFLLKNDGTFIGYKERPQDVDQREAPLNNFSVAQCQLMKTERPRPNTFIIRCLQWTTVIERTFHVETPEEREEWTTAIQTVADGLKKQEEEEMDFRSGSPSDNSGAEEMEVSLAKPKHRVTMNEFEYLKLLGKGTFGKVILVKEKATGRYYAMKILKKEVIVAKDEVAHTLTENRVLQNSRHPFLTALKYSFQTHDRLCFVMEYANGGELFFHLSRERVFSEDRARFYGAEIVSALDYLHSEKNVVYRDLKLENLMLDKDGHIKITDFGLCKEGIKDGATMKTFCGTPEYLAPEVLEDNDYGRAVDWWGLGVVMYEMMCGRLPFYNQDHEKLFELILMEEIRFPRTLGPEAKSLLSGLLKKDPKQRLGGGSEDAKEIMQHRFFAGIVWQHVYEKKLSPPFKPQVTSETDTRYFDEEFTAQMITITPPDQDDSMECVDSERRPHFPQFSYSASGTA
Chain of Mitogen-activated protein kinase 10 (P53779 whole entry): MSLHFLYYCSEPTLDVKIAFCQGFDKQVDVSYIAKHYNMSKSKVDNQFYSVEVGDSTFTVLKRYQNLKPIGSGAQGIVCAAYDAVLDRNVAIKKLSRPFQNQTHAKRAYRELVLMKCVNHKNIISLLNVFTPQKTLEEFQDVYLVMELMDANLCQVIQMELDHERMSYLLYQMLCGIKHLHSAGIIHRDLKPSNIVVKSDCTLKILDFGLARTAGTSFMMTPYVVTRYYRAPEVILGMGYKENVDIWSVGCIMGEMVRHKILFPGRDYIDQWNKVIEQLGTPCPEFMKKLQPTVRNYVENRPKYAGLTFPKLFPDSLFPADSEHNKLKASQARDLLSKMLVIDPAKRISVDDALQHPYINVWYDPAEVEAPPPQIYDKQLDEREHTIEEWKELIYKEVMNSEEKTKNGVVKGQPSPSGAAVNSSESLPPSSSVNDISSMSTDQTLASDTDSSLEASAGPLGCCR
Chain of Mitogen-activated protein kinase 8 (P45983 whole entry): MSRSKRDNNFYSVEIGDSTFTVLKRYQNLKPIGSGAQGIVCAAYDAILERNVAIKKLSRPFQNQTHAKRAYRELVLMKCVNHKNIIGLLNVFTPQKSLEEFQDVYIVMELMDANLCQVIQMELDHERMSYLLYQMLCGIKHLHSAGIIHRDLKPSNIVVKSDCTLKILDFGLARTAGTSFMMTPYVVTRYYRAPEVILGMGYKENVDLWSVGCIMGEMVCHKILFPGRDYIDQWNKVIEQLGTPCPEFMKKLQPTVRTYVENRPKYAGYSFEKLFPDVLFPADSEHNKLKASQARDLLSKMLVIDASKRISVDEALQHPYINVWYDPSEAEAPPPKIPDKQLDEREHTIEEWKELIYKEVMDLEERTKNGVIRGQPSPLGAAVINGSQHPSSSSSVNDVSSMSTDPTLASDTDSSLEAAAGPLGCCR

| half-life [1] [min] | IC50 [2] [nM] | IC50 [3] [nM] | IC50 [4] [nM] | SMILES | further results |
| --- | --- | --- | --- | --- | --- |
| 29 | < 6 | 317 | 2 | c1ccc2c(c1)CC(c1nc3ccc(-c4ccncc4)cc3[nH]1)CO2 (stereo unspecified) | inhibition at 10 µM (CYP2D6): 92%; inhibition at 10 µM (CYP2C9): 95%; inhibition at 10 µM (CYP3A4): 96%; inhibition at 10 µM (CYP1A2): 90% |
|  | < 6 | 397 | < 1 | COc1ccc2c(c1)CC(c1nc3c(F)cc(-c4ccnc(N)n4)cc3[nH]1)CO2 (stereo unspecified) | Cmax [5]: 740 nM; clearance [6]: 12 mL/min/kg; IC50 [7]: > 20 µM; Vd [8]: 0.63 L/kg; IC50 [9]: 16.8 µM; bioavailability [10]: 29%; AUC [11]: 2.2 µM·h; IC50 [12]: 1100 nM; IC50 [13]: 5 µM; half-life [14]: 84 min; IC50 [15]: 14.1 µM |
| 44 | 66 | 198 | 8 | Nc1nccc(-c2ccc3nc(C4COc5ccccc5C4)[nH]c3c2)n1 (stereo unspecified) | inhibition at 10 µM (CYP2D6): 15%; inhibition at 10 µM (CYP2C9): 13%; inhibition at 10 µM (CYP3A4): -3%; inhibition at 10 µM (CYP1A2): 31% |
| 57 |  | 1340 | 27 | Nc1nccc(-c2ccc3nc(C4COc5ccccc5C4)oc3c2)n1 (stereo unspecified) | inhibition at 10 µM (CYP2D6): -4%; inhibition at 10 µM (CYP2C9): -8%; inhibition at 10 µM (CYP3A4): -6%; inhibition at 10 µM (CYP1A2): 0% |
| 30 |  | 122 | 9 | Cc1[nH]ncc1-c1ccc2nc(C3COc4ccccc4C3)[nH]c2c1 (stereo unspecified) |  |
| 20 | 86 | 168 | 27 | c1ccc2c(c1)CC(c1nc3ccc(-c4cn[nH]c4)cc3[nH]1)CO2 (stereo unspecified) | inhibition at 10 µM (CYP2D6): 84%; inhibition at 10 µM (CYP2C9): 84%; inhibition at 10 µM (CYP3A4): 47%; inhibition at 10 µM (CYP1A2): 51% |
| 28 | 99 | 602 |  | COc1ccc2c(c1)CC(c1nc3ccc(-c4ccnc(N)n4)cc3[nH]1)CO2 (stereo unspecified) | Cmax [5]: 900 nM; clearance [6]: 17 mL/min/kg; Vd [8]: 0.89 L/kg; bioavailability [10]: 35%; fold change (FC) [16]: 240; AUC [11]: 1.9 µM·h; half-life [14]: 138 min |
| 45 |  | 270 | 6 | Nc1nccc(-c2ccc3nc(C4COc5ccc(F)cc5C4)[nH]c3c2)n1 (stereo unspecified) |  |
| 79 | 212 | 669 | < 1 | Nc1nccc(-c2ccc3nc(C4COc5ccc(C(=O)NC6CC6)cc5C4)[nH]c3c2)n1 (stereo unspecified) |  |
|  |  |  | 24 | COC(=O)c1ccc2c(c1)CC(c1nc3ccc(-c4ccnc(N)n4)cc3o1)CO2 (stereo unspecified) |  |
| 18 | 271 | 10200 | 6 | COC(=O)c1ccc2c(c1)CC(c1nc3ccc(-c4ccnc(N)n4)cc3[nH]1)CO2 (stereo unspecified) |  |
| 70 | 533 | 778 | 9 | Cc1[nH]ncc1-c1ccc2nc(C3COc4ccccc4C3)oc2c1 (stereo unspecified) |  |
| 91 | 28 | 2910 | 15 | Nc1nccc(-c2ccc3nc(C4COc5ccc(F)cc5C4)oc3c2)n1 (stereo unspecified) |  |
|  |  | 6380 | 296 | CC(C)Oc1ccc2c(c1)CC(c1nc3ccc(-c4ccnc(N)n4)cc3[nH]1)CO2 (stereo unspecified) |  |
| 34 | 46 |  | 2 | COc1ccc2c(c1)CC(c1nc3ccc(-c4ccnc(N)n4)cc3o1)CO2 (stereo unspecified) | Cmax [5]: 970 nM; clearance [6]: 8.4 mL/min/kg; Vd [8]: 1.6 L/kg; bioavailability [10]: 63%; fold change (FC) [16]: 950; AUC [11]: 6.6 µM·h; half-life [14]: 156 min |
| 25 |  | 6390 | 78 | Cc1ccc2c(c1)CC(c1nc3ccc(-c4ccnc(N)n4)cc3o1)CO2 (stereo unspecified) |  |
|  |  |  | 294 | CC(C)Oc1ccc2c(c1)CC(c1nc3ccc(-c4ccnc(N)n4)cc3o1)CO2 (stereo unspecified) |  |
| 25 | 23 | 75 | < 1 | Nc1nccc(-c2ccc3nc(C4COc5ccc(C(=O)NCc6ccccc6)cc5C4)[nH]c3c2)n1 (stereo unspecified) |  |
| 40 | 330 | 1210 | 21 | c1ccc2c(c1)CC(c1nc3ccc(-c4cn[nH]c4)cc3o1)CO2 (stereo unspecified) | inhibition at 10 µM (CYP2D6): 41%; inhibition at 10 µM (CYP2C9): 80%; inhibition at 10 µM (CYP3A4): 15%; inhibition at 10 µM (CYP1A2): 27% |
